Experimental data published in ChEMBL document CHEMBL5303573, “Mapping human microbiome drug metabolism by gut bacteria and their genes” (Nature, 2019).

Assays:
Type in all cases: ADME
Design in all cases: dose 2 uM
Conditions in all cases: 2 µM
[1] = target: T1, Pyridine nucleotide-disulfide oxidoreductase (Collinsella aerofaciens, UniProt A4EBM5); experiment: (§1) The drug is tested on Collinsella aerofaciens strain: ATCC25986 for biotransformation. The drug concentrations were measured before and after a 12-h incubation by liquid-chromatography-coupled mass spectrometry (LC–MS)
T1 sequence (A4EBM5 whole entry): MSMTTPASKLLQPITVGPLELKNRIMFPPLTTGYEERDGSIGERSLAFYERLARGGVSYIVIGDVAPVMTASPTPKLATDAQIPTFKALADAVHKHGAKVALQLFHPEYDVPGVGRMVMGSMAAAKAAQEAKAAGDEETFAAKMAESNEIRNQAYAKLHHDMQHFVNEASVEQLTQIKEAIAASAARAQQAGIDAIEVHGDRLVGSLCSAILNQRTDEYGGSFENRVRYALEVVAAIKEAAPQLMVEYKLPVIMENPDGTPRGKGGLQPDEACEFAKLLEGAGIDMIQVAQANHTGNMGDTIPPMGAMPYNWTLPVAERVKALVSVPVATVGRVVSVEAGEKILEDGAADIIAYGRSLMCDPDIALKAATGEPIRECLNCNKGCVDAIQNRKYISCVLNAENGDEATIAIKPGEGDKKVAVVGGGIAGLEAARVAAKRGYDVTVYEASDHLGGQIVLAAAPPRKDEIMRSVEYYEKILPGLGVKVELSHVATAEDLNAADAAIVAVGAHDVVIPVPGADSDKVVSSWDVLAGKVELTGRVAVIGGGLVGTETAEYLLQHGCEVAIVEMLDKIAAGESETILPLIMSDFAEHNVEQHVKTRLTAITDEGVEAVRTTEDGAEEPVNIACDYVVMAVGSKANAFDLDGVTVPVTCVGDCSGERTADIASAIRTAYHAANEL

[2] = target: T2, Diguanylate cyclase (Collinsella aerofaciens, UniProt A4EB91); experiment: as §1
T2 sequence (A4EB91 whole entry): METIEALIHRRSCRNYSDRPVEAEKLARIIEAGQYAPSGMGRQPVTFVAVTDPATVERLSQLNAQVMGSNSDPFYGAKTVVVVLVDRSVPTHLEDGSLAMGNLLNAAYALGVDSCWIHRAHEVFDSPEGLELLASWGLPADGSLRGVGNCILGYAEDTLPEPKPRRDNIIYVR

[3] = target: T3, GDSL-like protein (Collinsella aerofaciens, UniProt A4E8S4); experiment: as §1
T3 sequence (A4E8S4 whole entry): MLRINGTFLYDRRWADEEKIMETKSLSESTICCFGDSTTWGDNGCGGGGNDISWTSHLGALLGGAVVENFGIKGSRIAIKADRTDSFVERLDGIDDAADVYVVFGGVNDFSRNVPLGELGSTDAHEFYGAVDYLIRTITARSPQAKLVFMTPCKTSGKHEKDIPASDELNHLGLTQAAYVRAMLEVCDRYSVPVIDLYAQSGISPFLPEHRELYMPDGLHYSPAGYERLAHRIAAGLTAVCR

[4] = target: T4, Flavodoxin (Collinsella aerofaciens, UniProt A4ED08); experiment: as §1
T4 sequence (A4ED08 whole entry): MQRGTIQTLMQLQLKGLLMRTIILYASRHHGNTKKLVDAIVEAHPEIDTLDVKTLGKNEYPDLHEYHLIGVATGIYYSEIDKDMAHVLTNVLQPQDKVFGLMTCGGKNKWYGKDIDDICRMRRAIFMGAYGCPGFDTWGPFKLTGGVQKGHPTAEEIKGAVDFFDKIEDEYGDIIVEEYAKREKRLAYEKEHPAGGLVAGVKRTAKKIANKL

[5] = target: T5, GDSL-like protein (Collinsella aerofaciens, UniProt A4E7D0); experiment: as §1
T5 sequence (A4E7D0 whole entry): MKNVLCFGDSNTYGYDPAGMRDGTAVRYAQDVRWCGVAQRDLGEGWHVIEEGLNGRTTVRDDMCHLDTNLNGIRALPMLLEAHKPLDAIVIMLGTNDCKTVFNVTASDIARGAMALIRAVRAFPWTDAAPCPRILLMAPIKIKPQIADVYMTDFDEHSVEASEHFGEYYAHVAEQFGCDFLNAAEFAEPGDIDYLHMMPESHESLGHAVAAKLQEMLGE

[6] = target: T6, NADH dehydrogenase/NAD(P)H nitroreductase (Bacteroides thetaiotaomicron, UniProt Q8A8L9); experiment: (§2) The drug is tested on Bacteroides thetaiotaomicron strain: VPI-5482 for biotransformation. The drug concentrations were measured before and after a 12-h incubation by liquid-chromatography-coupled mass spectrometry (LC–MS)
T6 sequence (Q8A8L9 whole entry): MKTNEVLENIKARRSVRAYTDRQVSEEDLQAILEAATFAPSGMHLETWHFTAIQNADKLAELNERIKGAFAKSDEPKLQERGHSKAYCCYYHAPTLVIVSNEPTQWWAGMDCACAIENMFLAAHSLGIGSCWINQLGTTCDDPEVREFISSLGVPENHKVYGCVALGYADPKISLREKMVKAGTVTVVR

[7] = target: T7, Sialic acid-specific acetylesterase (Bacteroides thetaiotaomicron, UniProt Q8A331); experiment: as §2
T7 sequence (Q8A331 whole entry): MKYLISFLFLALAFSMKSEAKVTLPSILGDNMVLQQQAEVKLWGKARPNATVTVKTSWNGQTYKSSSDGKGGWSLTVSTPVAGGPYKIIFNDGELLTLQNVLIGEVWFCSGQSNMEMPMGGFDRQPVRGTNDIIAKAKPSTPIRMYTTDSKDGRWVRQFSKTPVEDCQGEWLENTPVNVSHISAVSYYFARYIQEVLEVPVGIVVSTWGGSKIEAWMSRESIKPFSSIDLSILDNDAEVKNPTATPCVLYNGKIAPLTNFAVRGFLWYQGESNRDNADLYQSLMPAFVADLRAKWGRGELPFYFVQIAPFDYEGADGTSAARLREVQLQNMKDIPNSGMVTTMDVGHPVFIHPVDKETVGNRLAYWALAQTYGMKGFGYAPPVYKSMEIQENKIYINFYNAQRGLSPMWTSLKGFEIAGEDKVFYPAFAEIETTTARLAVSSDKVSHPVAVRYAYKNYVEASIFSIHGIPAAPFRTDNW

[8] = target: T8, Acylhydrolase (Bacteroides thetaiotaomicron, UniProt Q8AA96); experiment: as §2
T8 sequence (Q8AA96 whole entry): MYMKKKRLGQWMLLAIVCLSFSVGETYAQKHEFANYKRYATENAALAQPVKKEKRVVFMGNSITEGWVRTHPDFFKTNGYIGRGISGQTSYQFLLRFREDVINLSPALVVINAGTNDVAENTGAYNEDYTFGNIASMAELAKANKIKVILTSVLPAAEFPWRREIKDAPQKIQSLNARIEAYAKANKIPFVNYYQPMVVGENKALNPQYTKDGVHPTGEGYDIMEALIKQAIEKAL

Measured: Bacterial Biotransformation

C[C@]12CCC(=O)C=C1[C@@H]1C[C@@H]1[C@H]1[C@@H]3[C@@H]4C[C@@H]4[C@@]4(CCC(=O)O4)[C@@]3(C)CC[C@@H]12 [DROSPIRENONE]
Compound NOT metabolized: all assays above
